Target: T1, sGC α1/β1 heterodimer stably expressed in CHO-K1 cells (CHO-K1/sGC) (Homo sapiens, UniProt Q02108+Q02153)
T1 construct: expressed in transfected cells
T1 sequence (Q02108 1-690): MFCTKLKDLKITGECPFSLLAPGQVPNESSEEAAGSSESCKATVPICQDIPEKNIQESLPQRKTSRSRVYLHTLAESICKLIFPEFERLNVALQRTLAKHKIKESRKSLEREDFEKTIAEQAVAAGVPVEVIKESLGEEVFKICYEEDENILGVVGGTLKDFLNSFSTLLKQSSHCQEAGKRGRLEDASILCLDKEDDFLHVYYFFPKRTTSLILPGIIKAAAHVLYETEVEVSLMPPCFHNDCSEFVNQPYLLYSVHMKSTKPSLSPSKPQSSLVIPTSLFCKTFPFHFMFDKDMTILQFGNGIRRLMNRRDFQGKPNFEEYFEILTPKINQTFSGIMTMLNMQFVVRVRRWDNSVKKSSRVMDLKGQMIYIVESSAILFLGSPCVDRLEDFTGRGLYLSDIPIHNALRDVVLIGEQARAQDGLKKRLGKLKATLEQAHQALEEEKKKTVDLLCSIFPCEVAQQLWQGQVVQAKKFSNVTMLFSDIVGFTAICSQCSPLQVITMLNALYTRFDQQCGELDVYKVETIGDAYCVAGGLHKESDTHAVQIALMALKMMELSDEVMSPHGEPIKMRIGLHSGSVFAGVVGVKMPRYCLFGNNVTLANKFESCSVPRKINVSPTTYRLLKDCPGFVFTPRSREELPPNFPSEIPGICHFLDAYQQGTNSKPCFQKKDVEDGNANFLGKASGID
T1 sequence (Q02153 1-619): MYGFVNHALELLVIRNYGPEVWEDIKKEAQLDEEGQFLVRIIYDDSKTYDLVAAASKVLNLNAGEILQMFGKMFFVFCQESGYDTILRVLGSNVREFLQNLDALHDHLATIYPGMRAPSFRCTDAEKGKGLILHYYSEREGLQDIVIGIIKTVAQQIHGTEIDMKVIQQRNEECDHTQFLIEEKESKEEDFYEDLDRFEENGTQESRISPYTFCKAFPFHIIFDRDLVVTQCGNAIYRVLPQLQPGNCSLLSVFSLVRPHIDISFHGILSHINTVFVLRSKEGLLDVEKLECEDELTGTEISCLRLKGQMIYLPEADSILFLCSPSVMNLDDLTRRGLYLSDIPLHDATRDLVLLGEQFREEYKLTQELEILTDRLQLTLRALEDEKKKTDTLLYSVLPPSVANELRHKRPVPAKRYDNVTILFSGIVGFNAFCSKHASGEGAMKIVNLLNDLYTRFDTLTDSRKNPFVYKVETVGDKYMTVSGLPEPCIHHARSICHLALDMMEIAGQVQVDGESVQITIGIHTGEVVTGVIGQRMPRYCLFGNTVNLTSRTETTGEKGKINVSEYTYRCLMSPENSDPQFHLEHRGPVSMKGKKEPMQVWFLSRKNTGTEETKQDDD
Test: Cell-based sGC functional assay (CASA assay), cGMP generation by HTRF
Settings: for Emax: CHO-K1, maximum cGMP production of Compound A set to 100% activation, read-out: % Act. (percent activation relative to Compound A); for EC50: CHO-K1/sGC cells, 1 hr at 37° C., 4P fit, presence or absence of DETA-NO not given, read-out: IP (nM) (inflection point); for % Act. (percent activation relative to Compound A): maximum cGMP production of Compound A set to 100% activation
Description: Biological Assay 1: Cell-Based sGC Functional Assay (CASA Assay) Rationale
sGC is a heme-containing enzyme that converts GTP to secondary messenger cGMP. Increases in cGMP levels affect several physiological processes including vasorelaxation through multiple downstream pathways. […] Heme-dependent activators (HDAs) preferentially activate sGC containing a ferrous heme group. To determine the effect of sGC activators on enzyme activity, the CASA assay was developed to monitor the generation of cGMP in a cell line that stably expresses the heterodimeric sGC protein.
A CHO-K1 cell line stably expressing the sGC α1/β1 heterodimer was generated using a standard transfection protocol. CHO-K1 cells were transfected with plasmids pIREShyghsGCα1 and pIRESneo-hsGCβ1 simultaneously using FUGENE reagent. Clones that stably express both subunits were selected with hygromycin and neomycin for ˜2 weeks. Clone #7 was chosen for the assay and was designated CHO-K1/sGC. CHO-K1/sGC cells were maintained in F-K12 medium containing 10% heat-inactivated Fetal Bovine Serum (FBS), 100 μg/mL penicillin/streptomycin, 0.5 mg/mL hygromycin and 0.25 mg/mL G418. The cells were then cryopreserved in LN2. On the day of the assay, cells were thawed and resuspended in EBSS Assay Buffer (Sigma, E3024) supplemented with 5 mM MgCl2, 10 mM HEPES (4-(2-hydroxyethyl)piperazine-1-ethanesulfonic acid) and 0.05% BSA (bovine serum albumin) (EAB) and cell density was then adjusted to 4×10^5/mL with EAB. IBMX (3-isobutyl-1-methylxanthin, 0.5 mM) was added to inhibit degradation of cGMP. Compounds were diluted from DMSO stock solutions and added to the assay at a final DMSO concentration of 2.5%. Cells were incubated with compounds in the presence and absence of 1 μM of Diethylenetriamine/nitric oxide adduct (DETA-NO; Sigma, 17018) for 1 hr at 37° C. At the end of the incubation period, the reaction was terminated and the cells were lysed with the detection reagents from Cisbio Kits. The level of intracellular cGMP was determined using an HTRF-based assay kit (CisBio, 62GM2PEC), which detects the displacement of a fluorescence labeled cGMP from its specific antibody. The cGMP produced by test compounds was directly compared to the maximum cGMP production (this value was set to equal 100% activation.) of the published sGC-HDA Compound A:
[drawing 101] (Example 1 in WO 2010/065275, published Jun. 10, 2010). The test compounds' activities were then expressed as a percentage of Compound A, the standard in every experiment. This percent activation was calculated either in the presence or absence of DETA-NO which was then plotted. IP and maximum fold induction was derived using ADA analysis software for 4P fit.
The compounds in the Examples of the instant invention had inflection points (IP) less than or equal to 10 μM and many had IPs less than or equal to about 1 μM.

Row | Emax | EC50 | % Act. (percent activation relative to Compound A) | Structure (SMILES)
1 | 123% | 47 nM |  | CCC1(CNc2nc(-c3nc(N)c4c(n3)NC(=O)C4(C)c3ccc(Cl)cc3)cn3ccnc23)CC1 (stereo not drawn) [Example 57A, 4-amino-5-(4-chlorophenyl)-2-(8-{[(1-ethylcyclo-propyl)methyl]amino}imidazo [1,2-a]pyrazin-6-yl)-5-methyl-5,7-dihydro-6H-pyrrolo[2,3-d] pyrimidin-6-one]
2 | 93% | 10 nM |  | CC(C)CSc1nc(-c2nc(N)c3c(n2)NC(=O)C3(C)c2ccc(F)cc2)cn2ccnc12 (stereo not drawn) [Example 63A, 4-amino-5-(4-fluorophenyl)-5-methyl-2-{8-[(2-methylpropyl)sulfanyl]imidazo [1,2-a]pyrazin-6-yl}-5,7-dihydro-6H-pyrrolo[2,3-d] pyrimidin-6-one]
3 |  | 143 nM | 95% | CC1(c2ccc(Cl)cc2)C(=O)Nc2nc(-c3cn4ccnc4c(NCC4CCCCO4)n3)nc(N)c21 (single isomer, unassigned; slow eluting) [Example 71B, 4-amino-5-(4-chlorophenyl)-5-methyl-2-{8-[(tetrahydro-2H-pyran-2-ylmethyl)amino]imidazo [1,2-a]pyrazin-6-yl}-5,7-dihydro-6H-pyrrolo[2,3-d] pyrimidin-6-one (slow eluting)]
4 |  | 633 nM | 85% | CC1(c2ccc(Cl)cc2)C(=O)Nc2nc(-c3cn4ccnc4c(OCC4CCCCO4)n3)nc(N)c21 (single isomer, unassigned; slow eluting) [Example 68B, 4-amino-5-(4-chlorophenyl)-5-methyl-2-[8-(tetrahydro-2H-pyran-2-ylmethoxy)imidazo[1,2-a]pyrazin-6-yl]-5,7-dihydro-6H-pyrrolo [2,3-d] pyrimidin-6-one (slow eluting)]
5 | 98% | 266 nM |  | CCC1(CNc2nc(-c3nc(N)c4c(n3)NC(=O)C4(C)c3ccc(F)cc3)cn3ccnc23)CC1 (stereo not drawn) [Example 54A, 4-amino-2-(8-{[(1-ethyl-cyclopropyl)methyl]amino}imidazo[1,2-a]pyrazin-6-yl)-5-(4-fluoro-phenyl)-5-methyl-5,7-dihydro-6H-pyrrolo[2,3-d] pyrimidin-6-one]
6 | 81% | 336 nM |  | CC(Nc1nc(-c2nc(N)c3c(n2)NC(=O)C3(C)c2ccc(Cl)cc2)cn2ccnc12)c1ccccc1 (stereo not drawn) [Example 73, 4-amino-5-(4-chlorophenyl)-5-methyl-2-{8-[(1-phenylethyl)amino]imidazo [1,2-a]pyrazin-6-yl}-5,7-dihydro-6H-pyrrolo[2,3-d] pyrimidin-6-one]
7 | 101% | 244 nM |  | COCCNc1nc(-c2nc(N)c3c(n2)NC(=O)C3(C)c2ccc(F)cc2)cn2ccnc12 (stereo not drawn) [Example 52A, 4-amino-5-(4-fluorophenyl)-2-{8-[(2-methoxyethyl)amino]imidazo [1,2-a]pyrazin-6-yl}-5-methyl-5,7-dihydro-6H-pyrrolo[2,3-d] pyrimidin-6-one]
8 | 106% | 26 nM |  | CC1(c2ccc(Cl)cc2)C(=O)Nc2nc(-c3cn4ccnc4c(OCc4ccccc4)n3)nc(N)c21 (stereo not drawn) [Example 48A, 4-amino-2-[8-(benzyloxy)imidazo[1,2-a]pyrazin-6-yl]-5-(4-chlorophenyl)-5-methyl-5,7-dihydro-6H-pyrrolo[2,3-d] pyrimidin-6-one]

The remaining lines, values behind:

Row | Structure (SMILES) | Emax | EC50 | % Act. (percent activation relative to Compound A)
9 | CC1(c2ccc(F)cc2)C(=O)Nc2nc(-c3cn4ccnc4c(Oc4cccc(F)c4F)n3)nc(N)c21 (stereo not drawn) [Example 15A, 4-amino-2-[8-(2,3-difluorophenoxy)imidazo[1,2-a]pyrazin-6-yl]-5-(4-fluorophenyl)-5-methyl-5,7-dihydro-6H-pyrrolo[2,3-d] pyrimidin-6-one] | 104% | 23 nM | 
10 | CC1(c2ccc(F)cc2)C(=O)Nc2nc(-c3cn4ccnc4c(Oc4cc(F)cc(F)c4)n3)nc(N)c21 (stereo not drawn) [Example 23A, 4-amino-2-[8-(3,5-difluorophenoxy)imidazo[1,2-a]pyrazin-6-yl]-5-(4-fluorophenyl)-5-methyl-5,7-dihydro-6H-pyrrolo[2,3-d] pyrimidin-6-one] | 100% | 16 nM | 
11 | CC1(c2ccc(F)cc2)C(=O)Nc2nc(-c3cn4ccnc4c(OCC4CCCCC4)n3)nc(N)c21 (stereo not drawn) [Example 43A, 4-amino-2-[8-(cyclohexyl-methoxy)imidazo [1,2-a]pyrazin-6-yl]-5-(4-fluorophenyl)-5-methyl-5,7-dihydro-6H-pyrrolo[2,3-d] pyrimidin-6-one] | 116% | 17 nM | 
12 | CC1(c2ccc(Cl)cc2)C(=O)Nc2nc(-c3cn4ccnc4c(Oc4cc(F)ccc4F)n3)nc(N)c21 (stereo not drawn) [Example 27A, 4-amino-5-(4-chlorophenyl)-2-[8-(2,5-difluoro-phenoxy)imidazo [1,2-a]pyrazin-6-yl]-5-methyl-5,7-dihydro-6H-pyrrolo[2,3-d] pyrimidin-6-one] | 128% | 47 nM | 
13 | CC1(c2ccc(F)cc2)C(=O)Nc2nc(-c3cn4ccnc4c(Oc4c(F)ccc(F)c4F)n3)nc(N)c21 (stereo not drawn) [Example 6A, 4-amino-5-(4-fluorophenyl)-5-methyl-2-[8-(2,3,6-trifluorophenoxy)imidazo[1,2-a]pyrazin-6-yl]-5,7-dihydro-6H-pyrrolo[2,3-d] pyrimidin-6-one] | 89% | 499 nM | 
14 | CC1(c2ccccc2)C(=O)Nc2nc(-c3cn4ccnc4c(Oc4c(F)ccc(F)c4F)n3)nc(N)c21 (stereo not drawn) [Example 7B, 4-amino-5-methyl-5-phenyl-2-[8-(2,3,6-trifluorophenoxy)imidazo[1,2-a]pyrazin-6-yl]-5,7-dihydro-6H-pyrrolo[2,3-d] pyrimidin-6-one] | 112% | 1020 nM | 
15 | CC1(C)C(=O)Nc2nc(-c3cn4ccnc4c(Oc4cc(F)cc(F)c4)n3)nc(N)c21 [Example 24, 4-amino-2-[8-(3,5-difluorophenoxy)imidazo[1,2-a]pyrazin-6-yl]-5,5-dimethyl-5,7-dihydro-6H-pyrrolo[2,3-d] pyrimidin-6-one] | 89% | 238 nM | 

From US10245264B2, “Substituted imidazo[1,2-a]pyrazines as soluble guanylate cyclase activators” (Merck Sharp & Dohme Corp., priority 2015, dated 2019)
